# pIC50: −log10 of the molar value.
# Biological target: T1, Chronophin (Mus musculus, UniProt P60487)
# T1 sequence (P60487 whole entry): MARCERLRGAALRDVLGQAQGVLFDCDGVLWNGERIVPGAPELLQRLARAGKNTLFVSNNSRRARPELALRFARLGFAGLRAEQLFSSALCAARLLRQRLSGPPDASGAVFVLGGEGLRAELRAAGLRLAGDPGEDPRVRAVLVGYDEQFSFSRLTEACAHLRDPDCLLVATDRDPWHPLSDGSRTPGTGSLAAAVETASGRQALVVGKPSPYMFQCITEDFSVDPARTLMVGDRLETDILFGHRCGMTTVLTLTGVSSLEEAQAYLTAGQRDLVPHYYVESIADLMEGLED
# Test: Inhibition of recombinant mouse brain PDXP expressed in Escherichia coli BL21 (DE3) cells assessed as pyridoxal 5' phosphate dephosphorylation preincubated for 4 mins followed by substrate addition measured after 5 mins
row,pIC50,Structure (SMILES)
1,3.61,Cc1ncc(/C=C/P(=O)(O)O)c(C=O)c1O
2,2.89,Cc1ncc(CCP(=O)(O)O)c(CO)c1O
3,2.89,Cc1ncc(/C=C/P(=O)(O)O)c(CO)c1O
4,4.10,Cc1ncc(CCP(=O)(O)O)c(C=O)c1O

# — ChEMBL document CHEMBL3425448, “Synthesis of hydrolysis-resistant pyridoxal 5'-phosphate analogs and their biochemical and X-ray crystallographic characterization with the pyridoxal phosphatase chronophin” (Bioorg Med Chem, 2015)
